Holding throughout (format): cell-based
Assay [1] relates to NCI-H1573 lung carcinoma cells. In words: Cell growth inhibition (CellTiter-Glo), NCI-H1573. The note with it: Homo sapiens, NCI-H1573, 72 h, 3 days. The source says:
(§1) Esophageal carcinoma cell line OE33 was purchased from ECACC European Collection of Cell Cultures (UK). Breast cancer cell line JIMT-1 and gastric carcinoma cell line MKN-45 were purchased from Deutsche Sammlung von Mikroorganismen and Zellkulturen GmbH (Germany); KPL-4, a human breast cancer cell line was kindly provided by Prof. J Kurebayashi (Kawasaki Medical School, Kurashiki, Japan). […] The LICR-LON-HN5 head and neck carcinoma cell line (HN5) was a gift from the Institute of Cancer Research, Surrey, U.K. HN5C12 was developed by single-cell cloning of HN5 followed by exposure to increasing concentrations of lapatinib. […] Cell growth inhibition was determined via CellTiter-Glo cell viability assays. […] BT474-J4 and HN5C12 were washed with PBS and plated in their culture media without lapatinib. […] ATP levels were determined by adding Cell Titer Glo0 (Promega), incubating for 20 minutes then the luminescent signal was read on the SpectraMax M5 plate with a 0.5 second integration time. Cell growth was calculated relative to vehicle (DMSO) treated control wells. […] Excess Over Highest Single Agent (EOHSA) is defined as a statistically significant improvement in the combination compared to the component monotherapies. […] Analysis was conducted using two-factor analysis of variance with interaction (model terms were dose of drug A, dose of drug B, and interaction between doses of drug A and B), followed by linear contrasts between each combination group and corresponding monotherapies. Analysis was conducted using SAS (version 9, provided by SAS Institute, Cary, N.C.). EOHSA at each dose was calculated as the minimum difference in average % inhibition between the combination and each monotherapy, from the appropriate ANOVA contrast. Since there are many comparisons for the % inhibition endpoint, p-value adjustment for multiple comparisons was performed. Hommel's procedure was implemented in order to improve the power while retaining […] Error Rate (FWE) control by using a sequentially rejective method. The p-values for both synergy and antagonism were calculated using this adjustment.

Assay [2] has as its system NCI-H1648 lung carcinoma cells. In words: Cell growth inhibition (CellTiter-Glo), NCI-H1648. The note with it: Homo sapiens, NCI-H1648, 72 h, 3 days.
Source text: as §1

Assay [3] concerns NCI-H1993 lung carcinoma cells. Put plainly: Cell growth inhibition (CellTiter-Glo), NCI-H1993. The note with it: Homo sapiens, NCI-H1993, 72 h, 3 days. The source says: (§2) Esophageal carcinoma cell line OE33 was purchased from ECACC European Collection of Cell Cultures (UK). Breast cancer cell line JIMT-1 and gastric carcinoma cell line MKN-45 were purchased from Deutsche Sammlung von Mikroorganismen and Zellkulturen GmbH (Germany); KPL-4, a human breast cancer cell line was kindly provided by Prof. J Kurebayashi (Kawasaki Medical School, Kurashiki, Japan). […] The LICR-LON-HN5 head and neck carcinoma cell line (HN5) was a gift from the Institute of Cancer Research, Surrey, U.K. HN5C12 was developed by single-cell cloning of HN5 followed by exposure to increasing concentrations of lapatinib. […] Cell growth inhibition was determined via CellTiter-Glo cell viability assays. […] BT474-J4 and HN5C12 were washed with PBS and plated in their culture media without lapatinib. […] ATP levels were determined by adding Cell Titer Glo0 (Promega), incubating for 20 minutes then the luminescent signal was read on the SpectraMax M5 plate with a 0.5 second integration time. Cell growth was calculated relative to vehicle (DMSO) treated control wells. […] y=([…]) where A is the minimum response (ymin), B is the maximum response (ymax), c is the inflection point of the curve (EC50), d is the Hill coefficient, and x is the log10 compound concentration (moles/L). CI values were calculated with the interpolated IC50 values and the mutually non-exclusive equation derived by Chou and […](a)+Db/IC50(b)+(Da×Db)/(IC50(a)×IC50(b)) where IC50(a) is the IC50 of the inhibitor A; IC50(b) is the IC50 for the inhibitor B; […] Excess Over Highest Single Agent (EOHSA) is defined as a statistically significant improvement in the combination compared to the component monotherapies. […] See Borisy et al. (2003) or Hung et al. (1993) for examples and discussion. Analysis was conducted using two-factor analysis of variance with interaction (model terms were dose of drug A, dose of drug B, and interaction between doses of drug A and B), followed by linear contrasts between each combination group and corresponding monotherapies. Analysis was conducted using SAS (version 9, provided by SAS Institute, Cary, N.C.). EOHSA at each dose was calculated as the minimum difference in average % inhibition between the combination and each monotherapy, from the appropriate ANOVA contrast. Since there are many comparisons for the % inhibition endpoint, p-value adjustment for multiple comparisons was performed. Hommel's procedure was implemented in order to improve the power while retaining […] Error Rate (FWE) control by using a sequentially rejective method. The p-values for both synergy and antagonism were calculated using this adjustment.

Assay [4] has as its system HN5C12 (HN5C2) lapatinib resistant head and neck carcinoma cells. In words: Cell growth inhibition (CellTiter-Glo), HN5C12. As to conditions: Homo sapiens, 72 h, 3 days.
Source text: as §2

For assay [5], the system named is A431 epidermal carcinoma cells. In words: Cell growth inhibition (CellTiter-Glo), A431. As to conditions: Homo sapiens, A-431, 72 h, 3 days.
Source text: as §2

Assay [6] has as its system NCI-H2170 lung carcinoma cells. In words: Cell growth inhibition (CellTiter-Glo), NCI-H2170. As to conditions: Homo sapiens, NCI-H2170, 72 h, 3 days.
Source text: as §2

Assay [7] has as its system Detroit 562 head and neck squamous cell carcinoma cells. In words: Cell growth inhibition (CellTiter-Glo), Detroit 562. The note with it: Homo sapiens, Detroit 562, 72 h, 3 days.
Source text: as §2

For assay [8], the system named is HN5 head and neck carcinoma cells. In words: Cell growth inhibition (CellTiter-Glo), HN5. The note with it: Homo sapiens, 72 h, 3 days.
Source text: as §2

Assay [9] has as its system KPL-4 breast cancer cells. Put plainly: Cell growth inhibition (CellTiter-Glo), KPL-4. As to conditions: Homo sapiens, KPL4, 72 h, 3 days.
Source text: as §2

In assay [10] the test system is NCI-H441 lung carcinoma cells. Put plainly: Cell growth inhibition (CellTiter-Glo), NCI-H441. As to conditions: Homo sapiens, NCI-H441, 72 h, 3 days.

SMILES strings stand for the structures. pIC50: −log10 of the molar value.

Consider `C#Cc1cccc(Nc2ncnc3cc(OCCOC)c(OCCOC)cc23)c1` [Erlotinib, N-(3-ethynylphenyl)-6,7-bis{[2-(methyloxy)ethyl]oxy}-4-quinazolinamine], for which the pIC50 in [1] (lung_H1573, +HGF (2 ng/mL)) is less than 5.00; in assay [1] (lung_H1573, −HGF), less than 5.00; in assay [2] (lung_H1648, +HGF (2 ng/mL)), less than 5.00; in assay [2] (lung_H1648, −HGF), less than 5.00; in assay [3] (lung_H1993, +HGF (2 ng/mL)), less than 5.00; in assay [3] (lung_H1993, −HGF) it was 5.09. The pIC50 in assay [4] (hn_HN5C2, +HGF (2 ng/mL)) was less than 5.00; in [4] (hn_HN5C2, −HGF), less than 5.00; in [5] (skin_A431, +HGF (2 ng/mL)), less than 5.00; in assay [5] (skin_A431, −HGF), 5.49; in [6] (lung_H2170, +HGF (2 ng/mL)), 5.11; in [6] (lung_H2170, −HGF), 5.89. Also, the pIC50 in [7] (hn_Detroit562, +HGF (2 ng/mL)) is less than 5.00; in [7] (hn_Detroit562, −HGF), less than 5.00; in assay [8] (hn_HN5, +HGF (2 ng/mL)), less than 5.00; in assay [8] (hn_HN5, −HGF), 5.17; in [9] (breast_KPL4, +HGF (2 ng/mL)), less than 5.00; in [9] (breast_KPL4, −HGF) it was less than 5.00. Also, the pIC50 was less than 5.00 in assay [10] (lung_H441, +HGF (2 ng/mL)) and less than 5.00 in [10] (lung_H441, −HGF).

For `CS(=O)(=O)CCNCc1ccc(-c2ccc3ncnc(Nc4ccc(OCc5cccc(F)c5)c(Cl)c4)c3c2)o1` [Lapatinib, N-(3-chloro-4-{[(3-fluorophenyl)methyl]oxy}phenyl)-6-[5-({[2-(methylsulfonyl)ethyl]amino}methyl)-2-furanyl]-4-quinazolinamine], the pIC50 is less than 5.00 in assay [1] (lung_H1573, +HGF (2 ng/mL)); 5.01 in assay [1] (lung_H1573, −HGF); less than 5.00 in [2] (lung_H1648, +HGF (2 ng/mL)); 5.13 in assay [2] (lung_H1648, −HGF); less than 5.00 in assay [3] (lung_H1993, +HGF (2 ng/mL)); less than 5.00 in [3] (lung_H1993, −HGF). Also, the pIC50 in assay [4] (hn_HN5C2, +HGF (2 ng/mL)) was 5.41; in [4] (hn_HN5C2, −HGF) it was 5.39; in assay [5] (skin_A431, +HGF (2 ng/mL)), 5.34; in assay [5] (skin_A431, −HGF), 5.66; in assay [6] (lung_H2170, +HGF (2 ng/mL)), 5.37; in assay [6] (lung_H2170, −HGF) it was 6.59. The pIC50 in assay [7] (hn_Detroit562, +HGF (2 ng/mL)) is 5.33; in assay [7] (hn_Detroit562, −HGF), 5.40; in assay [8] (hn_HN5, +HGF (2 ng/mL)) it was 5.43; in [8] (hn_HN5, −HGF), 5.63; in [9] (breast_KPL4, +HGF (2 ng/mL)), 6.05; in [9] (breast_KPL4, −HGF) it was 6.00. The pIC50 was less than 5.00 in assay [10] (lung_H441, +HGF (2 ng/mL)) and less than 5.00 in [10] (lung_H441, −HGF).

Values taken from patent US20130150363A1, “Method of Treating Cancer Using a cMET and AXL Inhibitor and an ErbB Inhibitor” (GlaxoSmithKline, priority 2008, published 2013).
